Reference: patent publication US9670203B2 (BeiGene, LTD., priority 2013, dated 2017)
Like-named read-outs stand apart in the source and are kept apart here.

Experiments:
[1] = system: p61-A375; experiment: Anti-proliferative activity EC50 assay (CellTiter-Glo) in p61-A375; assay type: cell-based; conditions: 72 h; 3-day exposure; read-out: Cell Proliferation EC50 (nM) p61-A375
Description: (§1) To express p61 in mammalian cells, cDNA encoding the p61 (Poulikakos et al., Nature. 2011 Nov. 23; 480(7377):387-90) was synthesized by Genscript and cloned into pLVX-IRES-Puro vector (Clontech). The cDNA was a modified form of p61 in which sequencing encoding the flag-epitope had been inserted to the C-terminus, resulting in the expression of flag-tagged forms of protein. A375 cells were stably transfected with the Flag-p61 expressing plasmid and selected with DMEM containing […] puromycin (Invitrogen). Cells were cloned by limiting dilution in a 96-wells plate and the clones screened by western blot analysis using a monoclonal antibody directed against the flag-epitope.
(§2) The growth-inhibitory activity of compounds in A375 and p61-A375, was determined using CellTiter-Glo luminescent cell viability assay (Promega). The 2,000 cells were seeded per well of a 96-well plate to ensure logarithmic growth could occur over the 3 days treatment period. Cells were left to attach for 16 hours, cells were treated in duplicate with a 10-point dilution series. Following a 3-day exposure to compounds disclosed herein, a volume of CellTiter-Glo reagent equal to the volume of cell culture medium present in each well was added. Mixture was mixed on an orbital shaker for 2 minutes to allow cell lysis, followed by 10 minutes incubation at room temperature to allow stabilization of luminescent signal, which corresponded to quantitation of ATP and thus the quantitation of metabolically active cells. Luminescent signal was measured using Pherastar FS reader (BMG Labtech).
(§3) EC50 values for growth inhibition were calculated by fitting dose-dependent data to the four-parameter logistic model using GraphPad Prism software.

[2] = system: Calu-6 (pERK); experiment: ERK phosphorylation inhibition IC50 assay in Calu-6; assay type: cell-based; conditions: Homo sapiens, 1 hour compound treatment
Description: (§4) Growth medium was then replaced with 100 μL of serum free DMEM, cells were then treated with a 10-point titration of compounds disclosed herein. After 1 hour compound treatment, 50 μL of lysis buffer (Cisbio) were added to each well and incubated at room temperature with shaking for 30 minutes. A total of 16 μL of cell lysate from each well of a 96-well plate was transferred to a 384-well small volume white plate. Lysate from each well was incubated with 2 μL of Eu^3+-cryptate (donor) labeled anti-ERK antibody (Cisbio) and 2 μL of D2 (acceptor) labeled anti-phospho-ERK antibody (Cisbio) for 2 hours at room temperature. When donor and acceptor are in close proximity, excitation of the donor with laser triggers a Fluorescence Resonance Energy Transfer (FRET) towards the acceptor, which in turn fluoresces at 655 nm wavelength. Fluorescence values were measured using a BMG reader.
(§5) IC50 values for ERK inhibition were calculated by fitting dose-dependent data to the four-parameter logistic model using GraphPad Prism software.

[3] = molecular target: C-Raf (Y340D/Y341D) (Homo sapiens (Human), UniProt P04049, Y340D/Y341D); experiment: Raf IC50 assay, time-resolved fluorescence energy transfer, C-Raf (Y340D/Y341D); assay type: biochemical; conditions: 0.1 mM ATP
Description: The assay was carried out in reactions (10 μL) containing 0.0625 nM B-Raf or 0.5 nM C-Raf, 25 mM Tris pH7.4, 10 mM MgCl2, 0.5 mM EGTA, 0.5 mM Na3VO4, 5 mM beta-glycerophosphate, 0.01% Triton X-100, 2.5 mM DTT, 0.1% BSA, 0.1 mM ATP, 13.7 nM GST-tagged MEK1 (Full-length protein with K97R mutation, recombinant protein purified from bacterial expression system) and 0-5 μM compounds disclosed herein (final concentration of 1% DMSO). The enzyme was incubated with the compounds at room temperature for 60 minutes and the reactions were initiated by the addition of ATP and GST-MEK1. After reaction at room temperature for 60 minutes, an equal volume of stop/detection solution was added according to the manufacture's instruction (CisBio Bioassays). The stop/detection solution contained Eu^3+ cryptate-conjugated anti-phospho MEK1/2 (Ser217/221) rabbit polyclonal antibody and d2-conjugated anti-GST mouse monoclonal antibody in buffer containing 25 mM Tris pH7.4, 400 mM KF, 50 mM EDTA, 0.01% BSA and 0.01% Triton X-100. Plates were sealed and incubated at room temperature for 2 hours, and the TR-FRET signals (ratio of fluorescence emission at 665 nm over emission at 620 nm with excitation at 337 nm wavelength) were recorded on a PHERAstar FS plate reader (BMG Labtech). Phosphorylation of MEK1 led to the binding of anti-phospho-MEK1/2 antibody to GST-MEK1 protein that place fluorescent donor (Eu^3+ crypate) in close proximity to the accepter d2 on the anti-GST antibody, thus resulting in a high degree of fluorescence resonance energy transfer from the donor fluorophore (at 620 nm) to the acceptor fluorophore (at 665 nm). […] The IC50 for each compound was derived from fitting the dose-response % inhibition data to the four-parameter logistic model by Graphpad Prism software.

[4] = system: p61-A375 (pERK); experiment: ERK phosphorylation inhibition IC50 assay in p61-A375; assay type: cell-based; conditions: 1 hour compound treatment
Description: as §1, §4, §5

[5] = system: HeLa (pERK); experiment: ERK phosphorylation inhibition IC50 assay in HeLa; assay type: cell-based; conditions: Homo sapiens, 1 hour compound treatment
Description: as §4, §5

[6] = molecular target: wild type B-Raf (Homo sapiens (Human), UniProt P15056); experiment: WT B-Raf IC50 assay, time-resolved fluorescence energy transfer; assay type: biochemical
Description: The IC50 for each compound was calculated by non linear regression by Graphpad Prism software.

[7] = system: A375; experiment: Anti-proliferative activity EC50 assay (CellTiter-Glo) in A375; assay type: cell-based; conditions: Homo sapiens, A-375, 72 h; 3-day exposure; read-out: Cell Proliferation EC50 (nM) A375
Description: as §2, §3

[8] = molecular target: B-Raf (V600E) (Homo sapiens (Human), UniProt P15056, V600E); experiment: Raf IC50 assay, time-resolved fluorescence energy transfer, B-Raf (V600E); assay type: biochemical; conditions: 0.1 mM ATP; read-out: IC50 (nM) B_Raf^V600E
Description: The enzyme was incubated with the compounds at room temperature for 60 minutes and the reactions were initiated by the addition of ATP and GST-MEK1. After reaction at room temperature for 60 minutes, an equal volume of stop/detection solution was added according to the manufacture's instruction (CisBio Bioassays). […] The IC50 for each compound was derived from fitting the dose-response % inhibition data to the four-parameter logistic model by Graphpad Prism software.

[9] = 2.5 mM ATP, read-out: IC50 (nM) B-Raf^WT 2.5 mM ATP
[10] = Km ATP (2.9 μM ATP), read-out: IC50 (nM) B-Raf^WT Km ATP

Chain of wild type B-Raf (P15056 whole entry): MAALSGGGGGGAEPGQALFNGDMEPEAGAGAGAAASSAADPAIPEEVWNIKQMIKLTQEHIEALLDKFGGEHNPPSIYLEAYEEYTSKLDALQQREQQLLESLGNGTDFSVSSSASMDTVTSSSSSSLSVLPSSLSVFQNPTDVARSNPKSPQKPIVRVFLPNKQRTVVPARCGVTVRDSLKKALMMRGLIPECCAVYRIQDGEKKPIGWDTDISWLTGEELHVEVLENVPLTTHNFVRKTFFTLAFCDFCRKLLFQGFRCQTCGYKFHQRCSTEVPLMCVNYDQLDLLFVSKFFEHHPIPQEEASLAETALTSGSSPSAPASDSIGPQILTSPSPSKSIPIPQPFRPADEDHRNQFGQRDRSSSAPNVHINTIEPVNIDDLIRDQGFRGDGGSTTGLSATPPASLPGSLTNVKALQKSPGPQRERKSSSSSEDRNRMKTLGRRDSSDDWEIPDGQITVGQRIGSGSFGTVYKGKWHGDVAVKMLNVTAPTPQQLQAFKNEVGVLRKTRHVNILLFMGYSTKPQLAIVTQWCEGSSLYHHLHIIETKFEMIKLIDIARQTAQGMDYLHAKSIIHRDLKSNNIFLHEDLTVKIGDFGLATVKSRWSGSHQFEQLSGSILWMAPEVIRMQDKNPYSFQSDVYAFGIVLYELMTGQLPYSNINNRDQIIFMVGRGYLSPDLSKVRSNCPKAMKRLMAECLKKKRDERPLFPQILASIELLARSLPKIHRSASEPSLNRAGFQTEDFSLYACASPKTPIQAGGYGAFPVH
Chain of C-Raf (Y340D/Y341D) (P04049 whole entry Y340D/Y341D): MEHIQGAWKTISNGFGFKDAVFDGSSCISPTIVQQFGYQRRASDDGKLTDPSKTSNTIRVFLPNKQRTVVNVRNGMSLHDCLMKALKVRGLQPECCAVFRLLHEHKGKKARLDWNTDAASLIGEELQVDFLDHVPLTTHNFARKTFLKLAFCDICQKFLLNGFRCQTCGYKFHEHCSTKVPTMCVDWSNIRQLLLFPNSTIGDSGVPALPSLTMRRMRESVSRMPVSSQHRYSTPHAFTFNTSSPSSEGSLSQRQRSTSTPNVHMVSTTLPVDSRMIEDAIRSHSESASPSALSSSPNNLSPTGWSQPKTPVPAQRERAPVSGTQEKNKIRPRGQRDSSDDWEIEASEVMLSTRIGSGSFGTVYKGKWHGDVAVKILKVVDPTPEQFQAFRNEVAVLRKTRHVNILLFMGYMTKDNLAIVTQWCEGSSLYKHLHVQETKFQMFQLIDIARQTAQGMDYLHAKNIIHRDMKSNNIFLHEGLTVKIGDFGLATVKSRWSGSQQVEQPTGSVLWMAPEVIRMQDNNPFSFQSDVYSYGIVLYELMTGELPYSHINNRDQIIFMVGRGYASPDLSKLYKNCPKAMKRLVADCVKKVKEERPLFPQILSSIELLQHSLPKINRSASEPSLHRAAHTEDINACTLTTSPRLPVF
Chain of B-Raf (V600E) (P15056 whole entry V600E): as the sequence (P15056 whole entry) above, with V600E counted along it

Structure (SMILES)	EC50 [1] [nM]	IC50 [2] [nM]	IC50 [3] [nM]	IC50 [4] [nM]	IC50 [5] [nM]	IC50 [6, 9] [nM]	IC50 [6, 10] [nM]	EC50 [7] [nM]	IC50 [8] [nM]
O=C1CCc2c(Oc3ccc4c(c3)[C@H]3[C@H](NC(=O)Nc5cc(F)cc(F)c5)[C@H]3O4)ccnc2N1 [Compound 1.23]	479	101	0.3	253	189	12	3.7	109	1.8
O=C1CCc2c(Oc3ccc4c(c3)[C@H]3[C@H](NC(=O)Nc5ccc(F)c(C(F)(F)F)c5)[C@H]3O4)ccnc2N1 [Compound 1.32]	527	301	1.2	433	536	58	17	55	7.7
O=C1CCc2c(Oc3ccc4c(c3)[C@H]3[C@H](NC(=O)Nc5ccc(F)cc5F)[C@H]3O4)ccnc2N1 [Compound 1.35]	1130	75	0.25	314	610	4.1	1	143	0.59
COc1cccc(NC(=O)N[C@@H]2[C@H]3Oc4ccc(Oc5ccnc6c5CCC(=O)N6)cc4[C@@H]23)c1Cl [Compound 1.6]	–	–	0.33	–	–	11	4.5	229	1.9
Cc1cc(NC(=O)N[C@@H]2[C@H]3Oc4ccc(Oc5ccnc6c5CCC(=O)N6)cc4[C@@H]23)ccc1F [Compound 1.24]	–	–	0.37	–	–	7.7	2.7	25	1.5
O=C1CCc2c(Oc3ccc4c(c3)[C@H]3[C@H](NC(=O)Nc5ccc(F)c(F)c5F)[C@H]3O4)ccnc2N1 [Compound 1.46]	–	–	0.22	–	–	6	1.7	109	0.78
O=C1CCc2c(Oc3ccc4c(c3)[C@H]3[C@H](NC(=O)Nc5cc(F)c(F)cc5F)[C@H]3O4)ccnc2N1 [Compound 1.49]	639	112	0.19	153	498	7.9	2.5	17	1.2
O=C1CCc2c(Oc3ccc4c(c3)[C@H]3[C@H](NC(=O)Nc5ccc(F)c(F)c5)[C@H]3O4)ccnc2N1 [Compound 1.45]	645	84	0.3	325	265	6.7	2.7	32	1.1
O=C1CCc2c(Oc3ccc4c(c3)[C@H]3[C@H](NC(=O)Nc5ccccc5F)[C@H]3O4)ccnc2N1 [Compound 1.21]	–	–	0.066	–	–	2.5	0.87	128	1.1
O=C1CCc2c(Oc3ccc4c(c3)[C@H]3[C@H](NC(=O)Nc5ccc(F)cc5)[C@H]3O4)ccnc2N1 [Compound 1.41]	–	–	0.15	–	–	–	0.57	65	0.8
O=C1CCc2c(Oc3ccc4c(c3)[C@H]3[C@H](NC(=O)Nc5cccc(F)c5)[C@H]3O4)ccnc2N1 [Compound 1.22]	–	–	0.18	–	–	4.2	1.7	87	1.3
O=C1CCc2c(Oc3ccc4c(c3)[C@H]3[C@H](NC(=O)Nc5cccc(C(F)(F)F)c5)[C@H]3O4)ccnc2N1 [Compound 1.1, 1-((1S,1aS,6bS)-5-((7-oxo-5,6,7,8-tetrahydro-1,8-naphthyridin-4-yl)oxy)-1a,6b-dihydro-1H-cyclopropa[b]benzofuran-1-yl)-3-(3-(trifluoromethyl)phenyl)urea]	–	–	1.6	–	–	43	13	109	8.3
O=C1CCc2c(Oc3ccc4c(c3)[C@H]3[C@H](NC(=O)Nc5c(F)cccc5F)[C@H]3O4)ccnc2N1 [Compound 1.44]	–	–	0.21	–	–	–	1.9	702	1.3
O=C1CCc2c(Oc3ccc4c(c3)[C@H]3[C@H](NC(=O)Nc5cc(F)cc(F)c5F)[C@H]3O4)ccnc2N1 [Compound 1.53]	1320	–	–	–	–	–	–	77	2.9
O=C1CCc2c(Oc3ccc4c(c3)[C@H]3[C@H](NC(=O)Nc5ccc(Cl)c(C(F)(F)F)c5)[C@H]3O4)ccnc2N1 [Compound 1.25]	–	–	2.3	–	–	–	33	25	27
O=C1CCc2c(Oc3ccc4c(c3)[C@H]3[C@H](NC(=O)Nc5ccc(Cl)c(Cl)c5)[C@H]3O4)ccnc2N1 [Compound 1.28]	–	–	0.77	–	–	49	16	40	5.5
O=C1CCc2c(Oc3ccc4c(c3)[C@H]3[C@H](NC(=O)Nc5cccc(F)c5F)[C@H]3O4)ccnc2N1 [Compound 1.42]	–	–	0.24	–	–	–	1.5	178	0.94
O=C1CCc2c(Oc3ccc4c(c3)[C@H]3[C@H](NC(=O)Nc5cccc(C(F)(F)F)c5F)[C@H]3O4)ccnc2N1 [Compound 1.12]	–	–	1.1	–	–	86	23	106	4.7
CCCS(=O)(=O)Nc1ccc(F)c(C(=O)c2c[nH]c3ncc(-c4ccc(Cl)cc4)cc23)c1F [Vemurafenib, reference compound]	> 10000	> 10000	–	> 10000	5820	–	–	178	–
O=C1CCc2c(Oc3ccc4c(c3)[C@H]3[C@H](NC(=O)Nc5cc(F)cc(C(F)(F)F)c5)[C@H]3O4)ccnc2N1 [Compound 1.11]	–	–	1.8	–	–	110	30	147	5.5
O=C1CCc2c(Oc3ccc4c(c3)[C@H]3[C@H](NC(=O)NC5CCCCCC5)[C@H]3O4)ccnc2N1 [Compound 1.52]	–	411	0.25	173	5430	–	1.7	47.7	1.4
O=C1CCc2c(Oc3ccc4c(c3)[C@H]3[C@H](NC(=O)NC5CCCCC5)[C@H]3O4)ccnc2N1 [Compound 1.66]	–	–	0.25	–	–	–	2.3	101	2.3
